Assays:
CD8+ T cells = experiment: In vitro T-cell priming assay with aAPCs loaded with peptide/MHC and anti-CD28, pMHC multimer readout; type: cell-based, human; settings: for Donors: percentage of positive donors; for Donors / wells: Table 10A; for wells: percentage of positive wells; for Wells positive [%]: Table 10B
Excerpt: In order to obtain information regarding the immunogenicity of the TUMAPs of the present invention, the inventors performed investigations using an in vitro T-cell priming assay based on repeated stimulations of CD8+ T cells with artificial antigen presenting cells (aAPCs) loaded with peptide/MHC complexes and anti-CD28 antibody.
In order to perform in vitro stimulations by artificial antigen presenting cells loaded with peptide-MHC complex (pMHC) and anti-CD28 antibody, the inventors first isolated CD8+ T cells from fresh HLA-A*02 leukapheresis products via positive selection using CD8 microbeads (Miltenyi Biotec, Bergisch-Gladbach, Germany) of healthy donors obtained from the University clinics Mannheim, Germany, after informed consent.
PBMCs and isolated CD8+ lymphocytes were incubated in T-cell medium (TCM) until use consisting of RPMI-Glutamax (Invitrogen, Karlsruhe, Germany) supplemented with 10% heat inactivated human AB serum (PAN-Biotech, Aidenbach, Germany), 100 U/ml Penicillin/100 μg/ml Streptomycin (Cambrex, Cologne, Germany), 1 mM sodium pyruvate (CC Pro, Oberdorla, Germany), 20 μg/ml Gentamycin (Cambrex). 2.5 ng/ml IL-7 (PromoCell, Heidelberg, Germany) and 10 U/ml IL-2 (Novartis Pharma, Nurnberg, Germany) were also added to the TCM at this step.
Generation of pMHC/anti-CD28 coated beads, T-cell stimulations and readout was performed in a highly defined in vitro system using four different pMHC molecules per stimulation condition and 8 different pMHC molecules per readout condition.
The purified co-stimulatory mouse IgG2a anti human CD28 Ab 9.3 (Jung et al., 1987) was chemically biotinylated using Sulfo-N-hydroxysuccinimidobiotin as recommended by the manufacturer (Perbio, Bonn, Germany). Beads used were 5.6 μm diameter streptavidin coated polystyrene particles (Bangs Laboratories, Illinois, USA).
800.000 beads/200 μl were coated in 96-well plates in the presence of 4×12.5 ng different biotin-pMHC, washed and 600 ng biotin anti-CD28 were added subsequently in a volume of 200 μl. Stimulations were initiated in 96-well plates by co-incubating 1×10^6 CD8+ T cells with 2×10^5 washed coated beads in 200 μl TCM supplemented with 5 ng/ml IL-12 (PromoCell) for 3 days at 37° C. Half of the medium was then exchanged by fresh TCM supplemented with 80 U/ml IL-2 and incubating was continued for 4 days at 37° C. This stimulation cycle was performed for a total of three times. For the pMHC multimer readout using 8 different pMHC molecules per condition, a two-dimensional combinatorial coding approach was used as previously described (Andersen et al., 2012) with minor modifications encompassing coupling to 5 different fluorochromes. Finally, multimeric analyses were performed by staining the cells with Live/dead near IR dye (Invitrogen, Karlsruhe, Germany), CD8-FITC antibody clone SK1 (BD, Heidelberg, Germany) and fluorescent pMHC multimers. For analysis, a BD LSRII SORP cytometer equipped with appropriate lasers and filters was used. Peptide specific cells were calculated as percentage of total CD8+ cells. Evaluation of multimeric analysis was done using the FlowJo software (Tree Star, Oregon, USA). In vitro priming of specific multimer+CD8+ lymphocytes was detected by comparing to negative control stimulations.

HLA-A*02:01 = HLA-A*02:01 (Homo sapiens, UniProt P04439, D140Y/D185E/D98H/E176V/E277Q/G131W/G231S/I119V/I121R/I166T/I218V/L300P/L318F/N151K/N90K/P208A/P217A/Q86G/Q94H/R138H/R169H/T345S); experiment: MHC binding assay: UV-ligand exchange with β2m ELISA; settings: peptide exchange yield, binding to HLA-A*02:01
Excerpt: Candidate peptides for T cell based therapies according to the present invention were further tested for their MHC binding capacity (affinity). The individual peptide-MHC complexes were produced by UV-ligand exchange, where a UV-sensitive peptide is cleaved upon UV-irradiation, and exchanged with the peptide of interest as analyzed. Only peptide candidates that can effectively bind and stabilize the peptide-receptive MHC molecules prevent dissociation of the MHC complexes. To determine the yield of the exchange reaction, an ELISA was performed based on the detection of the light chain (β2m) of stabilized MHC complexes. The assay was performed as generally described in Rodenko et al. (Rodenko et al., 2006).
96 well MAXISorp plates (NUNC) were coated over night with 2 ug/ml streptavidin in PBS at room temperature, washed 4× and blocked for 1 h at 37° C. in 2% BSA containing blocking buffer. Refolded HLA-A*02:01/MLA-001 monomers served as standards, covering the range of 15-500 ng/ml. Peptide-MHC monomers of the UV-exchange reaction were diluted 100 fold in blocking buffer. Samples were incubated for 1 h at 37° C., washed four times, incubated with 2 ug/ml HRP conjugated anti-β2m for 1 h at 37° C., washed again and detected with TMB solution that is stopped with […]. Absorption was measured at 450 nm. Candidate peptides that show a high exchange yield (preferably higher than 50%, most preferred higher than 75%) are generally preferred for a generation and production of antibodies or fragments thereof, and/or T cell receptors or fragments thereof, as they show sufficient avidity to the MHC molecules and prevent dissociation of the MHC complexes.

| Peptide exchange (HLA-A*02:01) | Substance | Donors (CD8+ T cells) | wells (CD8+ T cells) | Wells positive [%] (CD8+ T cells) |
| --- | --- | --- | --- | --- |
| – | 95 (LIQDRVAEV; listed as Homo sapiens) [compound 95] | ++ (20%-49% = ++) | + (<20% = +) | – |
| +++ (≥50 = +++) | 5 (NLMASQPQL; listed as Homo sapiens) [compound 5] | – | – | +++ (50%-69% = +++) |
| – | 94 (TLLQEQGTKTV; listed as Homo sapiens) [compound 94] | ++ (20%-49% = ++) | + (<20% = +) | – |
| +++ (≥50 = +++) | 1 (STYGGGLSV; listed as Homo sapiens) [compound 1] | – | – | + (<20% = +) |
| – | 97 (ELDRTPPEV; listed as Homo sapiens) [compound 97] | ++++ (>= 70% = ++++) | ++ (20%-49% = ++) | – |
| +++ (≥50 = +++) | 6 (LLSGDLIFL; listed as Homo sapiens) [compound 6] | – | – | ++ (20%-49% = ++) |
| +++ (≥50 = +++) | 29 (SLDGTELQL; listed as Homo sapiens) [compound 29] | – | – | + (<20% = +) |
| +++ (≥50 = +++) | 12 (GLASRILDA; listed as Homo sapiens) [compound 12] | – | – | + (<20% = +) |
| +++ (≥50 = +++) | 19 (GLAPFLLNAV; listed as Homo sapiens) [compound 19] | – | – | + (<20% = +) |
| – | 98 (VLFPNLKTV; listed as Homo sapiens) [compound 98] | ++++ (>= 70% = ++++) | + (<20% = +) | – |
| +++ (≥50 = +++) | 69 (GLLVGSEKVTM; listed as Homo sapiens) [compound 69] | – | – | + (<20% = +) |
| – | 101 (AMTQLLAGV; listed as Homo sapiens) [compound 101] | +++ (50%-69% = +++) | ++ (20%-49% = ++) | – |
| ++++ (≥75% = ++++) | 2 (SLYNLGGSKRISI; listed as Homo sapiens) [compound 2] | – | – | + (<20% = +) |
| ++ (≥20% = ++) | 77 (VLVPYEPPQV; listed as Homo sapiens) [compound 77] | – | – | + (<20% = +) |
| +++ (≥50 = +++) | 63 (LAYTLGVKQL; listed as Homo sapiens) [compound 63] | – | – | – |
| ++++ (≥75% = ++++) | 47 (VLASGFLTV; listed as Homo sapiens) [compound 47] | – | – | +++ (50%-69% = +++) |
| +++ (≥50 = +++) | 46 (YTAQIGADIAL; listed as Homo sapiens) [compound 46] | – | – | – |
| ++ (≥20% = ++) | 56 (ALVEVTEHV; listed as Homo sapiens) [compound 56] | – | – | – |

Source: patent US12351616B2, “Peptides and combination of peptides for use in immunotherapy against esophageal cancer and other cancers” (Immatics Biotechnologies GmbH, priority 2015, dated 2025)
